Legend:
[1] = tested on: human lung cancer LU-01-0414 subcutaneous xenograft tumor; assay: In vivo efficacy, subcutaneous xenograft tumor of human lung cancer LU-01-0414; design: species or system BALB/c mouse; details: LU-01-0414 xenograft, 14th day, PO
Experimental: Experimental object: evaluation of the in vivo efficacy of test drugs such as WX002A on subcutaneous xenograft tumor of human lung cancer LU-01-0414 in BALB/c mouse model.
(§1) Drug preparation: The compounds were all prepared into clear solutions with 5% DMSO+10% solutol+85% water as solvent for administration in the PO (intragastric) group.
(§2) Tumor measurement: the tumor diameters were measured with a vernier caliper twice a week. The calculation formula of tumor volume is: V=0.5×a×b^2, wherein a and b represent the long diameter and short diameter of the tumor, respectively. The anti-tumor efficacy of the compounds was evaluated by TGI (%). TGI (%) reflects tumor growth inhibition rate.
Statistical analysis: the statistical analysis was based on the relative tumor volume and tumor weight at the end of the experiment using SPSS software. One-way ANOVA was used to analyze the comparison between multiple groups. […] P<0.05 was considered to indicate significant difference.

[2] = tested on: human colon cancer cell line KM12 subcutaneous xenograft tumor; assay: In vivo efficacy, subcutaneous xenograft tumor of human colon cancer KM12; design: species or system BALB/c mouse; details: PO
Experimental: Experimental object: evaluation of the in vivo efficacy of test drugs such as WX002A on subcutaneous xenograft tumor of human colon cancer cell line KM12 cell in BALB/c mouse model.
as §1
as §2, with “is” for “was”
Statistical analysis: The statistical analysis was based on the relative tumor volume and tumor weight at the end of the experiment using SPSS software. One-way ANOVA was used to analyze the comparison between multiple groups. […] P<0.05 was considered to indicate significant difference.

[3] = In vivo cassette pharmacokinetic test in mice; design: species or system male CD-1 mice; details: cassette, mice
Experimental: The dose of the compounds: […] PO dose of 3 mg/kg, and administration volume of 3 mL/kg.

Ros1 = target: T1, Ros1 (Homo sapiens, UniProt P08922); assay: Kinase inhibitory activity (33P-ATP filter binding, Reaction Biology Corp.); assay type: biochemical; details: read-out: The half maximal inhibitory concentration IC50 on the kinases, Ros1
T1 construct: purchased Reaction Biology Corp. (contract assay)
T1 sequence (P08922 28-2347): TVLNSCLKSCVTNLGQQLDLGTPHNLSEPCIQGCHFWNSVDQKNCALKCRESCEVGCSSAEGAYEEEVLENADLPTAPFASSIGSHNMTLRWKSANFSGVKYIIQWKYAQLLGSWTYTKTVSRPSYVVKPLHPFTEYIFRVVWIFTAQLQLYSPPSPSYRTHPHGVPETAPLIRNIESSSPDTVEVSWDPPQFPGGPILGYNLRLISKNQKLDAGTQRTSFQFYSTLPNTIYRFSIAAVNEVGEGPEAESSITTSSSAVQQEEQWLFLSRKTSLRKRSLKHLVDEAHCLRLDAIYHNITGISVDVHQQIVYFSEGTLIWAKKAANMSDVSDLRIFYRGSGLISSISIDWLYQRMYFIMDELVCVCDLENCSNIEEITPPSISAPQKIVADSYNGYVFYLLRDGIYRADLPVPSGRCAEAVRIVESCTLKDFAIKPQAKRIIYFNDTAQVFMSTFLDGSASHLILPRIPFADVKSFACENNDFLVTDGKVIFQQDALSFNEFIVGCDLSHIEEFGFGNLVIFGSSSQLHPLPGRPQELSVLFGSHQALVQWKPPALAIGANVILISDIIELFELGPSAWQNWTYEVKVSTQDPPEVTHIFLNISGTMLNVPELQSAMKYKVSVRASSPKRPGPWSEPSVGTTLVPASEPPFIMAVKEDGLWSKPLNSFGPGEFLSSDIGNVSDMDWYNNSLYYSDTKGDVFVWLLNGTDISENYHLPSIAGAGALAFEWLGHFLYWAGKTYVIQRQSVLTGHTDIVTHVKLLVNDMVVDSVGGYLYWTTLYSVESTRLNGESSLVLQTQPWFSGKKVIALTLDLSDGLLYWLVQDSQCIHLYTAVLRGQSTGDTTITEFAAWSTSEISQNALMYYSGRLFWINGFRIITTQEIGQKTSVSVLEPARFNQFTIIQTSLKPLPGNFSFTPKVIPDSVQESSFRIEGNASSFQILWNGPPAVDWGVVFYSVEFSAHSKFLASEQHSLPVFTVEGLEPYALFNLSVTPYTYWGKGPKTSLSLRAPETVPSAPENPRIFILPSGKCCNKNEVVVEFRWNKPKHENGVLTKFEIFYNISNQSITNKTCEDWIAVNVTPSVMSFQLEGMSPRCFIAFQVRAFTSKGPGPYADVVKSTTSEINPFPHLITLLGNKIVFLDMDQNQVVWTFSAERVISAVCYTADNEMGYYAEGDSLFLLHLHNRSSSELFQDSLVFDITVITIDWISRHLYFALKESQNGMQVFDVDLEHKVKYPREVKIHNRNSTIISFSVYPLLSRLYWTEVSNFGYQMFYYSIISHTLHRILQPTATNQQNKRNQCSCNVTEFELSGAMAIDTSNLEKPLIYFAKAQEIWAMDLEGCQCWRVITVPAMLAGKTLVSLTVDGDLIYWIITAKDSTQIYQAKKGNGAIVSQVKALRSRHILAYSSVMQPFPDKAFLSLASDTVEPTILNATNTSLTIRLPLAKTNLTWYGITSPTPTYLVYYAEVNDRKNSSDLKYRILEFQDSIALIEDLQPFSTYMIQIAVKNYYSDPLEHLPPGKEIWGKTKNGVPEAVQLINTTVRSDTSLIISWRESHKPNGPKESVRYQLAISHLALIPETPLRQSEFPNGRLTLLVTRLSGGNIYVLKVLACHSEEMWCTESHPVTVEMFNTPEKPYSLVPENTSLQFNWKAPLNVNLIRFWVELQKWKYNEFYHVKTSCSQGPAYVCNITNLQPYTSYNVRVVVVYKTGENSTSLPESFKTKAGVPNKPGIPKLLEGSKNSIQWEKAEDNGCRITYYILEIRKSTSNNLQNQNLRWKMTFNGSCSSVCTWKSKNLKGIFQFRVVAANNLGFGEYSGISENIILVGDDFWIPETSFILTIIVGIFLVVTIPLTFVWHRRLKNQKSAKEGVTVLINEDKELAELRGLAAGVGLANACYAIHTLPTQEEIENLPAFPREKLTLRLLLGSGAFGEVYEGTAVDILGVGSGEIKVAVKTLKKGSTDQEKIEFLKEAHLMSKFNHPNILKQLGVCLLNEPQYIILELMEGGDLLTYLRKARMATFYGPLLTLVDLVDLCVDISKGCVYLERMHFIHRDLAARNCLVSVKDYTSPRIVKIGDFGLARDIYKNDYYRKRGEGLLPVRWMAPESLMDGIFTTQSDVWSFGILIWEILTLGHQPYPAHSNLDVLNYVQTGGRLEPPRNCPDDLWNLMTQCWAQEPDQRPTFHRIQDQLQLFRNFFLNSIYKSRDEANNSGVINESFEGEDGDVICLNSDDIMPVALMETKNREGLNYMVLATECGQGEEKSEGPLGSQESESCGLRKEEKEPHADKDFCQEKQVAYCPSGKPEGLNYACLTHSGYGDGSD
Outline: (§3)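 Radioactivity was read by filter binding. Activity was expressed as remaining activity relative to DMSO control, and IC50 came from dose-effect curve fitting.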

TrkA-G595R = target: T2, TrkA-G595R (Homo sapiens, UniProt P04629, G595R); assay: as above; assay type: biochemical; details: read-out: The half maximal inhibitory concentration IC50 on the kinases, TrkA-G595R
T2 construct: purchased Reaction Biology Corp. (contract assay)
T2 sequence (P04629 33-796 G595R): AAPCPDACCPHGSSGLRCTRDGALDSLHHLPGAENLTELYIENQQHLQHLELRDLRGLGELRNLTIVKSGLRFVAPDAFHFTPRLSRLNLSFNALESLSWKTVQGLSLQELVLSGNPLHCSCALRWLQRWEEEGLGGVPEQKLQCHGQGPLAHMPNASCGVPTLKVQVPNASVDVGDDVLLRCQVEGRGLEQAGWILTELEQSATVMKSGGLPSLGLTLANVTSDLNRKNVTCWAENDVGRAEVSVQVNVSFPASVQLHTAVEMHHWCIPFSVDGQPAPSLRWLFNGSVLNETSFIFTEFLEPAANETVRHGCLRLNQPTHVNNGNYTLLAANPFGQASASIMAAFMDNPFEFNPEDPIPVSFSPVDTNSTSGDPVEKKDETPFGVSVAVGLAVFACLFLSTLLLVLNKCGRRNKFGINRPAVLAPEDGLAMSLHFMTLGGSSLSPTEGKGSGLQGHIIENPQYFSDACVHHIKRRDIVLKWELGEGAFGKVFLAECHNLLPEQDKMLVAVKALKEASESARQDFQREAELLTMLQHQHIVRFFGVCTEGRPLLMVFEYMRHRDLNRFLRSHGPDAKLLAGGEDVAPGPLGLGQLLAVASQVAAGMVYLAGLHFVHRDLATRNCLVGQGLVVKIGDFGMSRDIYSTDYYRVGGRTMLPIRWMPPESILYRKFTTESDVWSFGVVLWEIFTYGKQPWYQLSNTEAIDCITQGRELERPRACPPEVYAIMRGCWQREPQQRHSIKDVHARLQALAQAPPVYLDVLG
Outline: as §3

TrkC = target: T3, TrkC (Homo sapiens, UniProt Q16288); assay: as above; assay type: biochemical; details: read-out: The half maximal inhibitory concentration IC50 on the kinases, TrkC
T3 construct: purchased Reaction Biology Corp. (contract assay)
T3 sequence (Q16288 32-839): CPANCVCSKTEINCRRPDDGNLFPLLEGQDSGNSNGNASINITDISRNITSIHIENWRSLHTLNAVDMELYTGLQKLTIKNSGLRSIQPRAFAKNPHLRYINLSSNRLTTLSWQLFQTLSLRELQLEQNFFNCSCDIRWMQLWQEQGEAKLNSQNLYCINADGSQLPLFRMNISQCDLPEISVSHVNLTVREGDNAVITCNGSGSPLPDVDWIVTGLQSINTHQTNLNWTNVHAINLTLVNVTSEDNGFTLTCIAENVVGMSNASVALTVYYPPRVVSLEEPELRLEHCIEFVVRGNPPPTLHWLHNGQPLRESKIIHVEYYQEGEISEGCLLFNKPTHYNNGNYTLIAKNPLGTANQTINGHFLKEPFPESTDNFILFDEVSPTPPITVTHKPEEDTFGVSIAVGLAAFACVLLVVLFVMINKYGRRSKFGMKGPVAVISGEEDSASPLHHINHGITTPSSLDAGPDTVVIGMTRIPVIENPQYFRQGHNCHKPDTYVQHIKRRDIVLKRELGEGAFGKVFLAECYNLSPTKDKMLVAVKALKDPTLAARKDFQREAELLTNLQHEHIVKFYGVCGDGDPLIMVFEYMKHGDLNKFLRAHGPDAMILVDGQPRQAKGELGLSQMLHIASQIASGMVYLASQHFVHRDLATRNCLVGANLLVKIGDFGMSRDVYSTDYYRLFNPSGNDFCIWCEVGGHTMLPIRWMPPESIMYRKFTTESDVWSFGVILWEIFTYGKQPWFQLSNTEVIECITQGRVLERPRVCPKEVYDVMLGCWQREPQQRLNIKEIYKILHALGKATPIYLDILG
Outline: as §3

TrkA-G667C = target: T4, TrkA-G667C (Homo sapiens, UniProt P04629, G667C); assay: as above; assay type: biochemical; details: read-out: The half maximal inhibitory concentration IC50 on the kinases, TrkA-G667C
T4 construct: purchased Reaction Biology Corp. (contract assay)
T4 sequence (P04629 33-796 G667C): as the sequence (P04629 33-796 G595R) above, with R563G, G635C counted along it
Outline: as §3

[4] = target: T5, Ba/F3 SLC34A2-ROS1-WT stably transfected cell line (Homo sapiens, UniProt P08922); assay: Cell proliferation inhibition (CellTiter-Glo); assay type: cell-based; details: 72 hours, read-out: The half maximal inhibitory concentration IC50 against cells, Ba/F3 SLC34A2-ROS1-WT
T5 construct: fused on or other part: O95436 (Sodium-dependent phosphate transport protein 2B)

## O=C1NC2(CC2)COc2ncc(F)cc2[C@H]2CCON2c2ccn3ncc1c3n2 [WX002A]
[1]; 3 mg/kg BID
  T/C: 9.57%
  TGI: 118.02%
[1]; 15 mg/kg BID
  T/C: 3.07%
  TGI: 126.88%
[1]; 30 mg/kg BID
  T/C: 1.87%
  TGI: 128.36%
[2]; dose of 3 mg/kg
  T/C: 33.18%
  TGI: 71.23%
[2]; dose of 15 mg/kg
  T/C: 15.63%
  TGI: 88.61%
[3]; IV @ 1 mpk
  Apparent clearance Cl: 6.3 mL/min/kg
  Apparent volume of distribution Vd: 0.57 L/kg
  Area under curve AUC0-inf: 6.689 µM·h
  Half life T1/2: 52.8 min
[3]; IV @ 1 mpk, plasma, read-out: Initial concentration C0
  C0: 3.71 µM
[3]; PO @ 3 mpk vs IV @ 1 mpk
  Bioavailability F %: 76%
[3]; PO @ 3 mpk
  Area under curve AUC0-inf: 19.769 µM·h
  Time of peak concentration Tmax: 15 min
[3]; PO @ 3 mpk, CSF, 0.5 h
  drug concentration in cerebrospinal fluid at 0.5 hour CSF@0.5 h: 63 nmol/kg
[3]; PO @ 3 mpk, CSF, 2 h
  drug concentration in cerebrospinal fluid at 2 hour CSF@2 h: 21 nmol/kg
[3]; PO @ 3 mpk, brain, 0.5 h
  drug concentration in brain at 0.5 h Brain@0.5 h: 663 nmol/kg
[3]; PO @ 3 mpk, brain, 2 h
  drug concentration in brain at 2 h Brain@2 h: 343 nmol/kg
[3]; PO @ 3 mpk, read-out: Peak concentration Cmax
  Cmax: 4.74 µM
Ros1
  IC50: 0.14 nM
TrkA-G595R
  IC50: 3.6 nM
TrkC
  IC50: 0.14 nM
TrkA-G667C
  IC50: 7 nM
[4]
  GI50: 2.53 nM

## O=C1N[C@@H]2COC[C@@H]2Oc2ncc(F)cc2[C@H]2CCON2c2ccn3ncc1c3n2 [WX008A]
Ros1
  IC50: 0.16 nM
TrkA-G595R
  IC50: 2.31 nM
TrkC
  IC50: 0.05 nM
TrkA-G667C
  IC50: 6.49 nM
[4]
  GI50: 5.45 nM

— US11464780B2, “Pyrazolopyrimidine derivative and use thereof” (Simcere Pharmaceutical Co. Ltd., priority 2018, dated 2022)
